“And” between values parts separate entries of the source, which are not always exact repeats. Identical values can stand only once. Like-named read-outs stand apart in the source and are kept apart here.

The results in this text go back to patent US4916149A, “Diuretic and saluretic 4-chloro-3-sulfamoylbenzoic acid hydrazides” (Chinoin Gyogyszer es Vegyeszeti Termekek Gyara Rt., priority 1987, dated 1990).

Data set [1] is described as follows: Glucose tolerance, serum uric acid and cholesterol. The class given is in vivo.
The nature of data set [2]: Saluretic/diuretic screening in rats (method of Lipschitz as modified by Kagawa and Kahn). The settings on record: for response vs control in vivo at 5 mg/kg: Rattus norvegicus; for response vs control in vivo at 5 mg/kg / Na/K ratio of the urine discharged: single oral dose (5 mg/kg oral screen dose), 24 hours; for Na/K ratio of the urine discharged: control 3.0. The class given is in vivo, male LATI CFY rats. On the procedure:
The compounds of the present invention were compared with Dihydrochlorothiazide and Furosemide in rats by administration of a 5 mg/kg oral screen dose.
The screening tests were carried out on male LATI CFY rats having an average body-weight of 240 g. The animals were kept on standard rat food and starved for 16 hours before the experiment but they received water ad libitum. For evaluation of the diuretic effect, the method of Lipschitz as modified by Kagawa and Kahn [Arch. Int. Pharmacodyn. 137, 241 (1962)] was used.
Effect of a single oral dose of the compounds according to the invention on water, sodium and potassium diuresis during 24 hours as percentage of the simultaneously measured control values as well as their effect on the Na/K ratio of the urine discharged

The nature of data set [3]: Antihypertensive activity in spontaneously hypertensive (SH) rats, systolic blood pressure. The settings on record: single oral dose 5 mg/kg. The class given is in vivo, spontaneously hypertensive (SH) male Okamoto rats. On the procedure:
[…] A hypotension of 21.1% was induced by the compound of Example 1 by 12 hours after administration.
These investigations were carried but in spontaneously hypertensive (SH) male Okamoto rats. At least one week before starting the experiment, the animals had individually been maintained in cages and received water and semisynthetic rat food ad libitum. In the same time of each day, the blood pressure of each animal was measured and gastric tubing was carried out while immobilizing the animals. Animals with a blood pressure below 170 Hgmm were excluded from the experiment. Based on the daily determined blood pressure values, the animals were divided to experimental groups having a nearly equal average blood pressure and deviation.
At the beginning of the experiment, the animals were given 0.2 ml/100 g of a solution containing the test compound, and 1 ml/100 g of Furosemide solution, respectively. Animal groups treated with physiological saline solution and solvent, respectively were also investigated in each experiment.
Before measuring the blood pressure, the animals were put into a light-insulated sound-proof chamber then immobilized. An inflatable rubber cuff was placed on their tail root (onto the same site in each case) which was connected with a manometer.
The material and diameter of the tail cuff was standardized. The measurement was carried out according to the Riva-Rocci principle. For determining the systolic blood pressure, the palpitation method was used. The heart rate was evaluated by a piezoelektric crystal put onto the rubber ring. The blood pressure measurement of each animal was started by 2 minutes following the immobilization, repeated in every 30 seconds and usually, the values several times repeatedly observed were accepted.
Effect of a single oral dose of the compound of Example 1 or Furosemide, respectively on the systolic blood pressure of SH rats

A short description of data set [4]: Saluretic effect in dogs (urine volume, Na and K, 0-7 and 7-24 hours). The class given is in vivo, perineotomized female dogs. The settings on record: 7 hours' period after administration. On the procedure: The compound described in Example 1 was studied also on perineotomized female dogs. […] For adaptation, starting from the 4th week following the operation, the urinary bladder of the animals was evacuated by a catheter or treated with saline via a gastric tube. During the experiment, the dogs were kept on a standard food and they received water ad libitum. On the days of the experiements, the dogs were fasted and received only 20 ml/kg of water. Sodium in an 7.7 mmol/kg and potassium in an amount of 6.02 mmol/kg were introduced with the food.
On the day of the experiment, the bladder of the animals was evacuated and a blood sample was taken from the leg vein, then a solution of the diuretic and solvent to the controls, respectively were administered in a dose of 10 ml/kg via a gastric tube. The animals were placed separately in metabolic cages. After 7 and 24 hours, respectively the bladder of the animals was catheterized and the urine was collected by washing the metabolic cage. After 24 hours following the catheterization, a blood sample was taken again.
In addition to the discharged volume, the Na^+ and K^+ content of the urine as well as the glucose and cholesterol level of the serum were determined.

Setting [5] is: read-out: K (potassium) diuresis, percentage of the simultaneously measured control values.
Setting [6] is: read-out: Na (sodium) diuresis, percentage of the simultaneously measured control values.
Where [7] appears, read: read-out: Water diuresis, percentage of the simultaneously measured control values.

As to `NS(=O)(=O)c1cc(C(=O)Nn2c(=S)[nH]c3cc(C(=O)O)ccc32)ccc1Cl.O` [Example 1, 1-(4'-chloro-3'-sulfamoylbenzoyl)amino-5-carboxybenzimidazole-2-thione monohydrate], the “deterioration of the glucose tolerance” value in data set [1] (even in a high dose (30 mg/kg)) is listed as “does not induce any deterioration”. Also, the “effect on the cholesterol level of the serum” value in data set [1] (in vivo) is listed as “no significant effect”. The “effect on the uric acid concentration of the serum” value in data set [1] (in vivo) is listed as “no significant effect”. Further, in data set [2] (5 mg/kg oral, compared with Dihydrochlorothiazide and Furosemide), the “discharged urine volume as well as ion diuresis” value is “particularly advantageous”. In data set [2] (5 mg/kg oral, result in words), the Na/K index entry is “highly preferable”. For the same compound, the response vs control in vivo at 5 mg/kg turned out to be 122% in data set [2] (setting [5]), 152% in data set [2] (setting [6]) and 148% in data set [2] (setting [7]). Besides, in data set [2], the “Na/K ratio of the urine discharged” value is 4.6. The “Hypotension 6 hours following treatment, %” value in data set [3] (6 hours) is 14.3%. The “Hypotension 6 hours following treatment” value in data set [3] (6 hours, before treatment 216 mmHg) amounted to 31 mmHg. In data set [3] (12 hours, before treatment 216 mmHg), the “Hypotension 12 hours following treatment” value is 45 mmHg. Moreover, in data set [3] (12 hours, monohydrate, 5 mg/kg), the “Hypotension 12 hours following treatment, %” value was 21.1% and 20.1%. The “Hypotension 24 hours following treatment, %” value in data set [3] (24 hours) came to 13.8%. The “Hypotension 24 hours following treatment” value in data set [3] (24 hours, before treatment 216 mmHg) was 30 mmHg.
`NS(=O)(=O)c1cc(C(=O)Nn2c(=O)[nH]c3cc(C(=O)O)ccc32)ccc1Cl` [Example 7, 1-(4'-chloro-3'-sulfamoylbenzoyl)-amino-5-carboxybenzimidazolone]: the response vs control in vivo at 5 mg/kg in data set [2] (setting [5]) is 110%; in data set [2] (setting [6]), 133%; in data set [2] (setting [7]) it was 129%. The “Na/K ratio of the urine discharged” value in data set [2] came to 3.7.
For `CSc1nc2cc(C(=O)O)ccc2n1NC(=O)c1ccc(Cl)c(S(N)(=O)=O)c1` [Example 9, 1-(4'-chloro-3'-sulfamoylbenzoyl)-amino-5-carboxy-2-methylthiobenzimidazole], the values for the response vs control in vivo at 5 mg/kg in data set [2] (setting [5]), in data set [2] (setting [6]) and in data set [2] (setting [7]) were 95%, 105% and 99%, respectively. In data set [2], the “Na/K ratio of the urine discharged” value was determined as 3.4.
Turning to `Cc1nc2cc(C(=O)O)ccc2n1NC(=O)c1ccc(Cl)c(S(N)(=O)=O)c1` [Example 16, 1-(4'-chloro-3'-sulfamoylbenzoyl)amino-5-carboxy-2-methylbenzimidazole], the response vs control in vivo at 5 mg/kg was 109% in data set [2] (setting [5]), 117% in data set [2] (setting [6]) and 111% in data set [2] (setting [7]). Further, the “Na/K ratio of the urine discharged” value in data set [2] worked out at 3.3.
Taken in the same sequence, the figures for `NS(=O)(=O)c1cc(C(=O)Nn2cnc3cc(C(=O)O)ccc32)ccc1Cl` [Example 19, 1-(4'-chloro-3'-sulfamoylbenzoyl)amino-5-carboxybenzimidazole] were 120%, 121%, 117% and 3.1.
In the case of `NS(=O)(=O)c1cc(C(=O)Nn2cnc3ccccc32)ccc1Cl` [Example 22, 1-(4'-chloro-3'-sulfamoylbenzoyl)-aminobenzimidazole], the response vs control in vivo at 5 mg/kg is 103% in data set [2] (setting [5]), 99% in data set [2] (setting [6]) and 107% in data set [2] (setting [7]). In addition, the “Na/K ratio of the urine discharged” value in data set [2] came out at 3.7.
The corresponding values for `Cc1nc2ccccc2n1NC(=O)c1ccc(Cl)c(S(N)(=O)=O)c1` [Example 23, 1-(4'-chloro-3'-sulfamoylbenzoyl)amino-2-methylbenzimidazole] are 102%, 105%, 98% and 4.0.
For the compound `NS(=O)(=O)c1ccc2c(c1)[nH]c(=S)n2NC(=O)c1ccc(Cl)c(S(N)(=O)=O)c1` [Example 24, 1-(4'-chloro-3'-sulfamoylbenzoyl)amino-5-sulfamoylbenzimidazole-2-thione], the response vs control in vivo at 5 mg/kg in data set [2] (setting [5]) came to 104%; in data set [2] (setting [6]), 104%; in data set [2] (setting [7]) it was 108%. Also, the “Na/K ratio of the urine discharged” value in data set [2] was found to be 3.9.
Regarding `NS(=O)(=O)c1cc(C(=O)Nn2cnc3cc(C(F)(F)F)ccc32)ccc1Cl` [Example 26, 1-(4'-chloro-3'-sulfamoylbenzoyl)amino-5-trifluoromethylbenzimidazole], the response vs control in vivo at 5 mg/kg is 106% in data set [2] (setting [5]), 108% in data set [2] (setting [6]) and 107% in data set [2] (setting [7]). Further, the “Na/K ratio of the urine discharged” value in data set [2] is 4.0.
As to `Cc1nc2cc(C(F)(F)F)ccc2n1NC(=O)c1ccc(Cl)c(S(N)(=O)=O)c1` [Example 27, 1-(4'-chloro-3'-sulfamoylbenzoyl)amino-2-methyl-5-trifluoromethylbenzimidazole], the response vs control in vivo at 5 mg/kg in data set [2] (setting [5]) worked out at 85%; in data set [2] (setting [6]) it was 94%; in data set [2] (setting [7]), 95%. Besides, the “Na/K ratio of the urine discharged” value in data set [2] is on record as 4.3.
On to `NS(=O)(=O)c1cc(C(=O)Nn2c(-c3ccccc3)nc3cc(C(F)(F)F)ccc32)ccc1Cl` [Example 29, 1-(4'-chloro-3'-sulfamoylbenzoyl)amino-2-phenyl-5-trifluoromethylbenzimidazole], for which the response vs control in vivo at 5 mg/kg in data set [2] (setting [5]) is 105%; in data set [2] (setting [6]) it was 101%; in data set [2] (setting [7]), 97%. For the same compound, the “Na/K ratio of the urine discharged” value in data set [2] is 2.9.
As to `CSc1nc2cc(C(F)(F)F)ccc2n1NC(=O)c1ccc(Cl)c(S(N)(=O)=O)c1` [Example 30, 1-(4'-chloro-3'-sulfamoylbenzoyl)-amino-2-methylthio-5-trifluoromethylbenzimidazole], the response vs control in vivo at 5 mg/kg in data set [2] (setting [5]) was found to be 108%; in data set [2] (setting [6]), 106%; in data set [2] (setting [7]), 114%. The “Na/K ratio of the urine discharged” value in data set [2] is reported as 3.0.
With `COC(=O)c1ccc2c(c1)nc(C)n2NC(=O)c1ccc(Cl)c(S(N)(=O)=O)c1` [Example 32, 1-(4'-chloro-3'-sulfamoylbenzoyl)amino-5-methoxycarbonyl-2-methylbenzimidazole], the response vs control in vivo at 5 mg/kg in data set [2] (setting [5]) was 115%; in data set [2] (setting [6]), 121%; in data set [2] (setting [7]), 117%. Moreover, in data set [2], the “Na/K ratio of the urine discharged” value was found to be 3.2.
For `NS(=O)(=O)c1cc2c(cc1Cl)NCNS2(=O)=O` [Hypothiazide, reference compound], the values for the response vs control in vivo at 5 mg/kg in data set [2] (setting [5]), in data set [2] (setting [6]) and in data set [2] (setting [7]) were 114%, 129% and 124%, respectively. Moreover, the “Na/K ratio of the urine discharged” value in data set [2] is on record as 3.5. In addition, the “diuretic effect in 7 hours' period” value in data set [4] is reported as “low”.
